Tested on: weeds
Test: Glasshouse weed control by HST/HPPD (mesotrione) mixtures, pre-emergence
Format: in vivo
Conditions: for colby: Colby synergy score; for % Damage at 14 DAA, 1 g ai ha^−1 mesotrione / % Damage at 14 DAA, no-mesotrione: N = 3
Experimental: Weed seeds are planted out in trays containing suitable soil (for example 50% peat, 50% John Innes soil no 3) and grown in the glass house conditions under 24-27° C. day; 18-21° C. night and approximately a 14 h (or longer in UK summer) photoperiod. Humidity is ˜65% and light levels up to 2000 μmol/m^2 at bench level. Trays are sprayed with test chemicals dissolved in water with 0.2-0.25% X-77 surfactant and sprayed from a boom on a suitable track sprayer moving at about 2 mph in a suitable track sprayer (for example a DeVries spray chamber with the nozzle about 2 inches from the plant tops). Spray volume is suitably 500-1000 l/ha. Sprays are carried out both pre-emergence and over small plants at about 7-12 d post-emergence
Plants are assessed 14 DAT and herbicidal damage is scored on a scale from 0 to 100%. The HST inhibitor compound 2.30 (designated compound A in table 16 and 17), haloxydine (compound 1.1) and compound 2.13 (designated compound AE in tables 16 and 17) are sprayed at rates between 0 and 500 g/ha.

[1] = ALOMY, 16 g/ha + mesotrione 1 g ai/ha
[2] = ALOMY, 31 g/ha + mesotrione 1 g ai/ha
[3] = ALOMY, 63 g/ha + mesotrione 1 g ai/ha
[4] = ALOMY, 125 g/ha + mesotrione 1 g ai/ha
[5] = ALOMY, 250 g/ha + mesotrione 1 g ai/ha
[6] = ALOMY, 500 g/ha + mesotrione 1 g ai/ha
[7] = AMARE, 16 g/ha + mesotrione 1 g ai/ha
[8] = AMARE, 31 g/ha + mesotrione 1 g ai/ha
[9] = AMARE, 63 g/ha + mesotrione 1 g ai/ha
[10] = AMARE, 125 g/ha + mesotrione 1 g ai/ha
[11] = AMARE, 250 g/ha + mesotrione 1 g ai/ha
[12] = AMARE, 500 g/ha + mesotrione 1 g ai/ha
[13] = ECHCG, 16 g/ha + mesotrione 1 g ai/ha
[14] = ECHCG, 31 g/ha + mesotrione 1 g ai/ha
[15] = ECHCG, 63 g/ha + mesotrione 1 g ai/ha
[16] = ECHCG, 125 g/ha + mesotrione 1 g ai/ha
[17] = ECHCG, 250 g/ha + mesotrione 1 g ai/ha
[18] = ECHCG, 500 g/ha + mesotrione 1 g ai/ha
[19] = IPOHE, 16 g/ha + mesotrione 1 g ai/ha
[20] = IPOHE, 31 g/ha + mesotrione 1 g ai/ha
[21] = IPOHE, 63 g/ha + mesotrione 1 g ai/ha
[22] = IPOHE, 125 g/ha + mesotrione 1 g ai/ha
[23] = IPOHE, 250 g/ha + mesotrione 1 g ai/ha
[24] = IPOHE, 500 g/ha + mesotrione 1 g ai/ha
[25] = SETFA, 16 g/ha + mesotrione 1 g ai/ha
[26] = SETFA, 31 g/ha + mesotrione 1 g ai/ha
[27] = SETFA, 63 g/ha + mesotrione 1 g ai/ha
[28] = SETFA, 125 g/ha + mesotrione 1 g ai/ha
[29] = SETFA, 250 g/ha + mesotrione 1 g ai/ha
[30] = SETFA, 500 g/ha + mesotrione 1 g ai/ha
[31] = SOLNI, 16 g/ha + mesotrione 1 g ai/ha
[32] = SOLNI, 31 g/ha + mesotrione 1 g ai/ha
[33] = SOLNI, 63 g/ha + mesotrione 1 g ai/ha
[34] = SOLNI, 125 g/ha + mesotrione 1 g ai/ha
[35] = SOLNI, 250 g/ha + mesotrione 1 g ai/ha
[36] = SOLNI, 500 g/ha + mesotrione 1 g ai/ha

O=c1c(Cl)c(F)[nH]c(F)c1Cl [Haloxidine]
colby [1]: 5% | % Damage at 14 DAA, 1 g ai ha^−1 mesotrione [1]: 8% | % Damage at 14 DAA, no-mesotrione (ALOMY, 16 g/ha): 3% | colby [2]: 12% | % Damage at 14 DAA, 1 g ai ha^−1 mesotrione [2]: 25% | % Damage at 14 DAA, no-mesotrione (ALOMY, 31 g/ha): 13% | colby [3]: 8% | % Damage at 14 DAA, 1 g ai ha^−1 mesotrione [3]: 50% | % Damage at 14 DAA, no-mesotrione (ALOMY, 63 g/ha): 42% | colby [4]: 10% | % Damage at 14 DAA, 1 g ai ha^−1 mesotrione [4]: 77% | % Damage at 14 DAA, no-mesotrione (ALOMY, 125 g/ha): 67% | colby [5]: −3% | % Damage at 14 DAA, 1 g ai ha^−1 mesotrione [5]: 78% | % Damage at 14 DAA, no-mesotrione (ALOMY, 250 g/ha): 82% | colby [6]: −2% | % Damage at 14 DAA, 1 g ai ha^−1 mesotrione [6]: 83% | % Damage at 14 DAA, no-mesotrione (ALOMY, 500 g/ha): 85% | colby [7]: 2% | % Damage at 14 DAA, 1 g ai ha^−1 mesotrione [7]: 42% | % Damage at 14 DAA, no-mesotrione (AMARE, 16 g/ha): 38% | colby [8]: 1% | % Damage at 14 DAA, 1 g ai ha^−1 mesotrione [8]: 75% | % Damage at 14 DAA, no-mesotrione (AMARE, 31 g/ha): 73% | colby [9]: 5% | % Damage at 14 DAA, 1 g ai ha^−1 mesotrione [9]: 93% | % Damage at 14 DAA, no-mesotrione (AMARE, 63 g/ha): 88% | colby [10]: 0% | % Damage at 14 DAA, 1 g ai ha^−1 mesotrione [10]: 100% | % Damage at 14 DAA, no-mesotrione (AMARE, 125 g/ha): 100% | colby [11]: 0% | % Damage at 14 DAA, 1 g ai ha^−1 mesotrione [11]: 100% | % Damage at 14 DAA, no-mesotrione (AMARE, 250 g/ha): 100% | colby [12]: 0% | % Damage at 14 DAA, 1 g ai ha^−1 mesotrione [12]: 100% | % Damage at 14 DAA, no-mesotrione (AMARE, 500 g/ha): 100% | colby [13]: 7% | % Damage at 14 DAA, 1 g ai ha^−1 mesotrione [13]: 20% | % Damage at 14 DAA, no-mesotrione (ECHCG, 16 g/ha): 13% | colby [14]: −2% | % Damage at 14 DAA, 1 g ai ha^−1 mesotrione [14]: 23% | % Damage at 14 DAA, no-mesotrione (ECHCG, 31 g/ha): 25% | colby [15]: 13% | % Damage at 14 DAA, 1 g ai ha^−1 mesotrione [15]: 53% | % Damage at 14 DAA, no-mesotrione (ECHCG, 63 g/ha): 40% | colby [16]: 5% | % Damage at 14 DAA, 1 g ai ha^−1 mesotrione [16]: 78% | % Damage at 14 DAA, no-mesotrione (ECHCG, 125 g/ha): 73% | colby [17]: −8% | % Damage at 14 DAA, 1 g ai ha^−1 mesotrione [17]: 83% | % Damage at 14 DAA, no-mesotrione (ECHCG, 250 g/ha): 92% | colby [18]: 7% | % Damage at 14 DAA, 1 g ai ha^−1 mesotrione [18]: 95% | % Damage at 14 DAA, no-mesotrione (ECHCG, 500 g/ha): 88% | colby [19]: 0% | % Damage at 14 DAA, 1 g ai ha^−1 mesotrione [19]: 0% | % Damage at 14 DAA, no-mesotrione (IPOHE, 16 g/ha): 0% | colby [20]: 0% | % Damage at 14 DAA, 1 g ai ha^−1 mesotrione [20]: 0% | % Damage at 14 DAA, no-mesotrione (IPOHE, 31 g/ha): 0% | colby [21]: −7% | % Damage at 14 DAA, 1 g ai ha^−1 mesotrione [21]: 8% | % Damage at 14 DAA, no-mesotrione (IPOHE, 63 g/ha): 15% | colby [22]: −10% | % Damage at 14 DAA, 1 g ai ha^−1 mesotrione [22]: 52% | % Damage at 14 DAA, no-mesotrione (IPOHE, 125 g/ha): 62% | colby [23]: −13% | % Damage at 14 DAA, 1 g ai ha^−1 mesotrione [23]: 67% | % Damage at 14 DAA, no-mesotrione (IPOHE, 250 g/ha): 80% | colby [24]: 3% | % Damage at 14 DAA, 1 g ai ha^−1 mesotrione [24]: 87% | % Damage at 14 DAA, no-mesotrione (IPOHE, 500 g/ha): 83% | colby [25]: 10% | % Damage at 14 DAA, 1 g ai ha^−1 mesotrione [25]: 10% | % Damage at 14 DAA, no-mesotrione (SETFA, 16 g/ha): 0% | colby [26]: 7% | % Damage at 14 DAA, 1 g ai ha^−1 mesotrione [26]: 32% | % Damage at 14 DAA, no-mesotrione (SETFA, 31 g/ha): 25% | colby [27]: 8% | % Damage at 14 DAA, 1 g ai ha^−1 mesotrione [27]: 58% | % Damage at 14 DAA, no-mesotrione (SETFA, 63 g/ha): 50% | colby [28]: 2% | % Damage at 14 DAA, 1 g ai ha^−1 mesotrione [28]: 90% | % Damage at 14 DAA, no-mesotrione (SETFA, 125 g/ha): 88% | colby [29]: 0% | % Damage at 14 DAA, 1 g ai ha^−1 mesotrione [29]: 95% | % Damage at 14 DAA, no-mesotrione (SETFA, 250 g/ha): 95% | colby [30]: 2% | % Damage at 14 DAA, 1 g ai ha^−1 mesotrione [30]: 98% | % Damage at 14 DAA, no-mesotrione (SETFA, 500 g/ha): 97% | colby [31]: 30% | % Damage at 14 DAA, 1 g ai ha^−1 mesotrione [31]: 47% | % Damage at 14 DAA, no-mesotrione (SOLNI, 16 g/ha): 0% | colby [32]: 21% | % Damage at 14 DAA, 1 g ai ha^−1 mesotrione [32]: 60% | % Damage at 14 DAA, no-mesotrione (SOLNI, 31 g/ha): 27% | colby [33]: 18% | % Damage at 14 DAA, 1 g ai ha^−1 mesotrione [33]: 75% | % Damage at 14 DAA, no-mesotrione (SOLNI, 63 g/ha): 48% | colby [34]: 3% | % Damage at 14 DAA, 1 g ai ha^−1 mesotrione [34]: 92% | % Damage at 14 DAA, no-mesotrione (SOLNI, 125 g/ha): 87% | colby [35]: 4% | % Damage at 14 DAA, 1 g ai ha^−1 mesotrione [35]: 100% | % Damage at 14 DAA, no-mesotrione (SOLNI, 250 g/ha): 95% | colby [36]: 0% | % Damage at 14 DAA, 1 g ai ha^−1 mesotrione [36]: 100% | % Damage at 14 DAA, no-mesotrione (SOLNI, 500 g/ha): 100%
